Earlier results as cited in patent publication US20070167440A1, “Novel pyrrolidine compound and a process for preparing the same” (priority 2004, published 2007).

System: gastric motility
Conditions: mice; disclosed in JP1993-17434

## COc1cc(N)c(Cl)cc1C(=O)NC1CC(CO)N(C(c2ccccc2)c2ccccc2)C1 (stereo not shown) [4-amino-5-chloro-N-[1-(diphenylmethyl)-5-(hydroxymethyl)-3-pyrrolidinyl]-2-methoxy-benzamide]
  gastric motility: increased gastric motility
